From US8394796B2, “Bicyclic pyrimidine PI3K inhibitor compounds selective for P110 delta, and methods of use” (Genentech, Inc., priority 2009, dated 2013)
Read-outs that look alike come from different tables or passages of the source.

Assays:
[1] = biological target: T1, p110δ/p85α (PI3K p110 delta) (Homo sapiens, UniProt O00329); assay: PI3K isoform inhibition assay (fluorescence polarization PIP3 displacement; alternatively radiometric), p110 delta; format: biochemical; details: for IC50: PI3K p110 delta binding IC50; for IC50 p110 alpha/IC50 p110 delta: delta/alpha selectivity: ratio of p110 alpha IC50 to p110 delta IC50
T1 construct: purchased Upstate Group, Millipore; Dundee, UK
Protocol: PI3K Isoform Inhibition Assay (p110 Alpha, Beta, Gamma, Delta: α, β, γ, δ)
PI3K enzymatic activity was assayed by measuring the amount of product phosphatidylinositol 3,4,5-phosphate (PIP3) formed from substrate 4,5 phosphatidylinositol 4,5-phosphate (PIP2) using a fluorescence polarization displacement assay. The decrease in fluorescence polarization of a fluorescent PIP3 probe is measured as it is displaced from a PIP3-binding protein GRP-1 detector by PI3K-catalyzed product. […] The kinase reactions were initiated by the addition of 40 ng/mL p110α/p85α, 300 ng/mL p110β/p85α, 40 ng/mL p110γ, or 40 ng/mL p110δ/p85α (Upstate Group, Millipore; Dundee, UK), and 10 μM PIP2 (Echelon Biosciences) to the wells. […] After 60 minutes of incubation at room temperature to allow equilibration of labeled and unlabeled PIP3 binding, the parallel and perpendicular components of the fluorescence emissions from each sample were measured at an excitation wavelength of 530 nm and an emission wavelength of 590 nm using an Envision fluorescent plate reader with a rhodamine filter (PerkinElmer Life and Analytical Sciences; Wellesley, Mass.). The assay is capable of detecting 0.1-2.0 μM PIP3 product. The IC50 values were obtained by fitting the dose-dependent inhibition data to a 4-parameter equation using Assay Explorer software (MDL, San Ramon, Calif.).
The Formula I compound was serially diluted in 100% DMSO. The kinase reaction was incubated for 1 h at room temperature, and the reaction was terminated by the addition of PBS. IC50 values were subsequently determined using sigmoidal dose-response curve fit (variable slope).
HT baculovirus expression system (GIBCO/BRL), and then purified for use in biochemical assays. The four Class I PI 3-kinases are cloned into baculovirus vectors as follows: […]

[2] = system: CD69 positive cells that are also CD20 positive, stimulated by anti-IgM, in human whole blood; assay: CD69 whole blood assay (human whole blood, anti-IgM stimulated); format: cell-based; details: read-out: IC50 in the CD69 Whole Blood Assay
Protocol: Human blood is obtained from healthy volunteers, with the following restrictions: 1 week drug-free, non-smokers. Blood (approximately 20 mls to test 8 compounds) is collected by venipuncture into Vacutainer tubes with sodium heparin.
Solutions of Formula I compounds at 1000 or 2000 μM in PBS (20×), are diluted by three-fold serial dilutions in 10% DMSO in PBS for a nine point dose-response curve. An aliquot of 5.5 μl of each compound is added in duplicate to a 2 ml 96-well plate; 5.5 μl of 10% DMSO in PBS is added as control and no-stimulus wells. Human whole blood—HWB (100 μl) is added to each well. After mixing the plates are incubated at 37° C., 5% CO2, 100% humidity for 30 minutes. Goat F(ab′)2 anti-human IgM (10 μl of a […] solution, 50 μg/ml final) is added to each well (except the no-stimulus wells) with mixing and the plates are incubated for an additional 20 hours. At the end of the 20 hour incubation, samples are incubated with florescent labeled antibodies for 30 minutes, at 37° C., 5% CO2, 100% humidity. Include induced control, unstained and single stains for compensation adjustments and initial voltage settings. Samples are then lysed with Pharmingen Lyse according to the manufacturer's instructions. Samples are then transferred to a 96 well plate suitable to be run on the AMS 96 well system on the BD Calibur FACs machine. Data acquired and Mean Fluorescence Intensity values were obtained using Cell Quest Software. Results are initially analyzed by FACS analysis software (Flow Jo). […] The IC50 values are calculated by Activityl)ase using Xlfit version 3, equation 201.

[3] = concentration decreasing by 50% the percent CD69 positive of CD20 positive cells stimulated by anti-IgM, 20 hours

T1 sequence (O00329 whole entry, canonical isoform): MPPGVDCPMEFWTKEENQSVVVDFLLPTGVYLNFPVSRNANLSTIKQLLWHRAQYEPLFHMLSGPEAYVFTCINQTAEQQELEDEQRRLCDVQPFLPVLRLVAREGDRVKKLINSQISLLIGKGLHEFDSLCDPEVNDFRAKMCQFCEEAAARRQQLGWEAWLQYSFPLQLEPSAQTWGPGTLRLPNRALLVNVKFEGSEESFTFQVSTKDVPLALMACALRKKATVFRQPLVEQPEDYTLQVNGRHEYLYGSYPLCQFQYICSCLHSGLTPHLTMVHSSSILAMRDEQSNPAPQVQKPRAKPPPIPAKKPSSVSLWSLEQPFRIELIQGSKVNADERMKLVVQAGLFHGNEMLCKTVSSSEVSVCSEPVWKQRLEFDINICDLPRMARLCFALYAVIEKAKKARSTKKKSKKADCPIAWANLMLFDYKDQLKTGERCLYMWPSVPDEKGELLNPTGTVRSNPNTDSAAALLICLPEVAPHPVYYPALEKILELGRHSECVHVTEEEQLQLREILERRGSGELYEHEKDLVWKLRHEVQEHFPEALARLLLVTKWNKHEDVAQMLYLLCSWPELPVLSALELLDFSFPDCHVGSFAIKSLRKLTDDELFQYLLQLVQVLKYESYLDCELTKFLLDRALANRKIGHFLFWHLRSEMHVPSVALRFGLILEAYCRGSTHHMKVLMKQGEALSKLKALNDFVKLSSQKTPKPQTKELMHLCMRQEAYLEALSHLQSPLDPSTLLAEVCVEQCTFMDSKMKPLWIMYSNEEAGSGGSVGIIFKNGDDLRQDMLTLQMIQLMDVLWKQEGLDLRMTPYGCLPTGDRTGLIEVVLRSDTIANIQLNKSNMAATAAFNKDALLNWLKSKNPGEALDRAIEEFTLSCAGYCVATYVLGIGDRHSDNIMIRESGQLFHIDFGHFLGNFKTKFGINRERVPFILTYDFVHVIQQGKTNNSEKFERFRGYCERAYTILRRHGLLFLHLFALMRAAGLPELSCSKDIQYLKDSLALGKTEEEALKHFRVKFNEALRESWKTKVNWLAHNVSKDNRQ
T1 sequence (P27986 whole entry partner, canonical isoform): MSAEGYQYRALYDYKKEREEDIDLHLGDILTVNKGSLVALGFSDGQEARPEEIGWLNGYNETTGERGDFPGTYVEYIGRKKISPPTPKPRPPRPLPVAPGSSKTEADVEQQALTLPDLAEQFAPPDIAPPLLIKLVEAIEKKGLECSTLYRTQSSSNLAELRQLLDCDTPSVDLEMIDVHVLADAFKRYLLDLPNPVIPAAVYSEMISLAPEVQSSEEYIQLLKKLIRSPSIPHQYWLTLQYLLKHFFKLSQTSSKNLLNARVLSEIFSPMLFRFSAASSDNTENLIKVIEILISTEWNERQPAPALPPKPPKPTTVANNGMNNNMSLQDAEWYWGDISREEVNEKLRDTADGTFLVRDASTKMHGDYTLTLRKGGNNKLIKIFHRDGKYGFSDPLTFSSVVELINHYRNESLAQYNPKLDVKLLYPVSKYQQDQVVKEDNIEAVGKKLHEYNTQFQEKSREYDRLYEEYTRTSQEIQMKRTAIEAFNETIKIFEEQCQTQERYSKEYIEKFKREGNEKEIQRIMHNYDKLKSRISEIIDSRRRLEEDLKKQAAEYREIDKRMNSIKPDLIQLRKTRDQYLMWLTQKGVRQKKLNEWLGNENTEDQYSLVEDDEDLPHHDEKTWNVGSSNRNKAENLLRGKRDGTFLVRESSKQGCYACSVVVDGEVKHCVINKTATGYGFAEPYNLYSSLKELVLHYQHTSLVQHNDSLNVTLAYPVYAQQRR

IC50 [1] [nM]	IC50 p110 alpha/IC50 p110 delta [1]	IC50 [2, 3] [nM]	Compound	IC50 ([2]; 20 h) [nM]
2.74	64	17.8	Cc1nc2ccccc2n1-c1nc(N2CCOCC2)c2oc(CN3CCN(C(C)(C)C(N)=O)CC3)cc2n1 [Example 240, 2-methyl-2-(4-((2-(2-methyl-1H-benzo[d]imidazol-1-yl)-4-morpholinofuro[3,2-d]pyrimidin-6-yl)methyl)piperazin-1-yl)propanamide]	–
–	–	44.1	CCc1nc2ccccc2n1-c1nc(N2CCOCC2)c2nc(CN3CCC(C4COC4)CC3)n(C)c2n1 [Example 314, 4-(2-(2-ethyl-1H-benzo[d]imidazol-1-yl)-9-methyl-8-((4-(oxetan-3-yl)piperidin-1-yl)methyl)-9H-purin-6-yl)morpholine]	–
–	–	51.1	CCc1nc2ccccc2n1-c1nc(N2CCOCC2)c2nc(CN3CC([C@@H](O)C(C)C)C3)n(C)c2n1 [Example 388, (S)-1-(1-((2-(2-ethyl-1H-benzo[d]imidazol-1-yl)-9-methyl-6-morpholino-9H-purin-8-yl)methyl)azetidin-3-yl)-2-methylpropan-1-ol]	–
–	–	22	Cn1c(CN2CCN(C(C)(C)C)CC2)nc2c(N3CCOCC3)nc(-n3c(C4CC4)nc4ccccc43)nc21 [Example 403, 4-(8-((4-tert-butylpiperazin-1-yl)methyl)-2-(2-cyclopropyl-1H-benzo[d]imidazol-1-yl)-9-methyl-9H-purin-6-yl)morpholine]	–
–	–	20.6	Cc1nc2ccccc2n1-c1nc(N2CCOCC2)c2nc(CN3CCN(C(C)(C)C(N)=O)CC3)n(C)c2n1 [Example 406, 2-methyl-2-(4-((9-methyl-2-(2-methyl-1H-benzo[d]imidazol-1-yl)-6-morpholino-9H-purin-8-yl)methyl)piperazin-1-yl)propanamide]	–
–	–	56.7	Cn1c(CN2CCN(C(C)(C)CO)CC2)nc2c(N3CCOCC3)nc(-n3c(CCO)nc4ccccc43)nc21 [Example 427, 2-(4-((2-(2-(2-hydroxyethyl)-1H-benzo[d]imidazol-1-yl)-9-methyl-6-morpholino-9H-purin-8-yl)methyl)piperazin-1-yl)-2-methylpropan-1-ol]	–
–	–	34.2	CNc1nc2ccccc2n1-c1nc(N2CCOCC2)c2nc(CN3CCN(C(C)(C)C)CC3)n(C)c2n1 [Example 428, 1-(8-((4-tert-butylpiperazin-1-yl)methyl)-9-methyl-6-morpholino-9H-purin-2-yl)-N-methyl-1H-benzo[d]imidazol-2-amine]	–
–	–	65.9	Cn1c(CN2CCN(C(C)(C)C(N)=O)CC2)nc2c(N3CCOCC3)nc(-n3c(C4CC4)nc4ccccc43)nc21 [Example 438, 2-(4-((2-(2-cyclopropyl-1H-benzo[d]imidazol-1-yl)-9-methyl-6-morpholino-9H-purin-8-yl)methyl)piperazin-1-yl)-2-methylpropanamide]	–
2.38	111	38.3	CC(C)c1nc2ccccc2n1-c1nc(N2CCOCC2)c2nc(CN3CCN(C(C)(C)CO)CC3)[nH]c2n1 [Example 490, 2-(4-((2-(2-isopropyl-1H-benzo[d]imidazol-1-yl)-6-morpholino-9H-purin-8-yl)methyl)piperazin-1-yl)-2-methylpropan-1-ol]	–
–	–	28.6	Cc1nc2ccccc2n1-c1nc(N2CCOCC2)c2nc(CN3CCC(C(C)(C)O)CC3)[nH]c2n1 [Example 702, 2-(1-((2-(2-methyl-1H-benzo[d]imidazol-1-yl)-6-morpholino-9H-purin-8-yl)methyl)piperidin-4-yl)propan-2-ol]	–

Compound	IC50 [1] [nM]	IC50 p110 alpha/IC50 p110 delta [1]	IC50 [2, 3] [nM]	IC50 ([2]; 20 h) [nM]
CN(C)C1CCN(Cc2cc3nc(-c4ccc(O)c5nccn45)nc(N4CCOCC4)c3s2)CC1 [Example 689, 5-(6-((4-(dimethylamino)piperidin-1-yl)methyl)-4-morpholinothieno[3,2-d]pyrimidin-2-yl)imidazo[1,2-a]pyridin-8-ol]	25.8	23	–	29
